Laboratory results from paper PMC10669426, “Exploring the Use of Hydroxytyrosol and Some of Its Esters in Food-Grade Nanoemulsions: Establishing Connection between Structure and Efficiency” (Antioxidants, 2023).

Assays:
[1] = DPPH radical assay, EC50 values at different reaction times; assay type: biochemical; conditions: T = 25 °C
Procedure: To check if the same insignificant changes hold for HT derivatives, we further tested the point by determining the EC50 values for the different HT derivatives. A UV-Vis Powerwave XS Microplate Reader (96-well microplate, Bio-Tek Instruments, Inc., Winooski, VT, USA) was employed to monitor the loss of DPPH^● (from reaction with each AO) at T = 25.0 ± 0.1 °C. The absorbance of each well was recorded (λ = 515 nm) at 60 s intervals for a 4000 s period, Figure 3.
Each set of experiments was performed in triplicate and, in some instances, in quadruplicate, and the reported EC50 values in Table 1 (determined from data in Figure 3) are the average of these repetitions.

[2] = Shake-flask partition in binary stripped fish oil–water mixtures in the absence of emulsifier; assay type: physicochemical; conditions: binary 1:9 (v:v) fish oil:water mixture, 25 °C; for partition constant PW^O: average of four runs; for %AOO, percentage present in the oil phase / %AOW, percentage present in the aqueous phase: no emulsifier, pH 3.0 buffer
Procedure: The partition constants, PW^O, of HT and some of its esters were determined, by employing the shake-flask method, in binary stripped fish oil–water mixtures in the absence of emulsifier. Sets of four 1:9 (v:v, oil:water, total volume = 10 mL) binary mixtures, each one containing the same AO, were prepared by stirring the mixture at high speed for 1 min. HT and the C1–C3 derivatives were dissolved in the buffered aqueous solution; meanwhile, those with longer alkyl chains were dissolved in the fish oil phase. The final stoichiometric concentration of AOs was 3.5 mM in all samples. Mixtures were stirred at high speed for 2 min and then equilibrated at T = (25 ± 1) °C for at least 24 h in the dark. The resulting two phases were then divided by centrifugation. Concentrations of the AOs in each phase were estimated by interpolation in previously prepared calibration curves by employing UV-Vis (λ = 285 nm). Further details on the method have been published elsewhere.
The reported PW^O values in Table 2 are average of the four runs. The PW^O values for the more hydrophobic antioxidants are not reported because of the high uncertainty in their values, as the ratio of percentages may be susceptible to small errors in the determination of the values of the AO concentrations in the aqueous phase. In any case, PW^O values higher than 150 indicate that AOs are, essentially, water insoluble.

[3] = Chemical kinetic method (pseudophase model) with the probe 16-ArN2^+ in intact fish oil-in-water nanoemulsions; assay type: physicochemical; conditions: intact 1:9 fish oil-in-water nanoemulsions, T = 25 °C; for 10^2 kI, interfacial rate constant for the reaction between 16ArN2^+ and AO: values given as 10^2 kI
Procedure: The distribution of HT and its derivatives was determined by using a chemical kinetic method, as have been published elsewhere based on the reaction between a chemical probe (16-ArN2^+, specifically localized at the interface) and the AOs. The changes detected in the observed rate constant for this reaction (kobs) at different surfactant volume fractions (ΦI) were evaluated according to the pseudophase kinetic model developed by Romsted and Bravo-Díaz and explained in detail elsewhere.
The chemical probe 16-ArN2^+ reacts, virtually, with any antioxidant as described elsewhere and the reaction can be monitored by UV-Vis with the aid of a specially developed derivatization protocol. […] The absorbance of the resulting azo dye was monitored at λ = 572 nm once diluted with a 50:50 (v:v) BuOH:EtOH mixture. This dilution step is critical and its purpose is to obtain an optically transparent, homogeneous solution. Details of the complete procedure have been published elsewhere.
Succinctly, after initiating the reaction between 16-ArN2^+ and the antioxidants in the intact emulsion, constant volumes (200 µL) of the nanoemulsion were extracted at given time periods and rapidly added to numbered glass tubes to quench the reaction. Because the quenching reaction is much faster than the reaction between 16-ArN2^+ and the antioxidants, the absorbance of the formed azo dye is proportional to the concentration of unreacted 16-ArN2^+ so that the decrease in absorbance of the azo dye with time can be used to determine kobs. For this purpose, we fitted the experimental (absorbance, time) pairs of data to the integrated first-order rate equation by using a non-linear least squares method provided by a commercial computer program. Figure 4 illustrates the typical variations of the absorbance of the azo dye versus time as determined in the intact fish oil-in-water nanoemulsions. The solid lines are the fitting curves to the integrated and linearized first-order equations.
The relationships between kobs and the partition constants of the AOs between the oil-interfacial, PO^I, and aqueous-interfacial, PW^I, regions are given by Equations (1)–(3), and the partition constants were estimated by fitting the variations of 1/kobs, with ΦI at constant stoichiometric concentration of the antioxidant ([AOT] = 2.5 × 10^−3 M), ΦW (ΦW = 0.9) and ΦO (ΦO = 0.1) as explained in detail elsewhere.
The experimental (kobs, ΦI) pairs of data were fitted to the equations derived from the pseudophase model Equations (1)–(3), which hold for very hydrophilic (Equation (1)) and very hydrophobic (Equation (2)) antioxidants and for those of intermediate hydrophobicity (3).

[4] = Distribution and effective interfacial concentrations of AOs in fish oil nanoemulsions, calculated from partition constants; assay type: physicochemical; conditions: for order of the percentages of AOs in the interfacial region (%AOI): at any ΦI value
From the text: The values of the partition constants PO^I and PW^I in Table 3 were used to estimate the distribution of the AOs in the intact nanoemulsions. Details of the calculations and the equations employed are not given here to keep focus and for the sake of clarity, but can be easily found elsewhere.
In Equation (5), nT represents the total number of moles of the antioxidant, VT the total volume of the emulsion, and ΦI is the interfacial volume fraction. To distinguish between the stoichiometric and effective concentrations, we employed square brackets, [ ], defined as molarity of total emulsion volume, and parenthesis, ( ), defined as molarity of the interfacial region, respectively. The reader must be aware that VI, is the sum of all of the interfacial volumes of all of the aggregates present in the system, and that it matches that of the total volume of the added surfactant. Emulsion droplets and other association colloids as micelles present in the system are broken and reformed at rates much faster than those of the relevant chemical reactions, allowing rapid transfer of materials between them. That is, they are in dynamic equilibrium. (5) (AOI)=nI/VI=nT(%AOI)/VI=nT/VT(%AOI)/VI/VT=[AOT](%AOI)/ΦI

[5] = Relative oxidative stability of fish oil nanoemulsions, formation of conjugated dienes (AOCS Ti-1a-64); conditions: for antioxidant efficiency order (time needed to reach 0.5% conjugated dienes): 1:9 fish nanoemulsions, T = 25 °C, [AOT] = 0.1 mM
From the text: Accelerated tests are commonly used to assess the relative stability of emulsions because of their reproducibility. In the present work, we used the AOCS official standard method Ti-1a-64 to determine the relative antioxidant efficiency of the antioxidants under a set of standardized conditions. For this purpose, we measured the formation of conjugated dienes (CD) with time following the procedure described in detail elsewhere. […] We, however, controlled their stability visually; no phase separation was detected.
We estimated the relative oxidative stability of fish oil nanoemulsions by controlling the extent of lipid oxidation under a set of standardized conditions. For this purpose, we measured the level of oxidation on the basis of the production of conjugated dienes (CD) with time. The method, identical to the AOCS official standard method Ti-1a-64, is rather sensitive and reproducible and suitable for monitoring the early stages of lipid oxidation. Figure 12A is illustrative of a typical oxidation kinetics experiment and where one can observe a constant small increase (lag time) up to a sudden increase in the formation of conjugated dienes (CD). The relative efficiency was assessed by determining the necessary time to reach an increase in CD production of 0.5%. Further details on the experimental procedure and calculations can be found elsewhere.

Row | SMILES | EC50 ([1]; t = 5 min) [mol AO/mol DPPH^●] | EC50 ([1]; t = 15 min) [mol AO/mol DPPH^●] | EC50 ([1]; t = 30 min) [mol AO/mol DPPH^●] | EC50 ([1]; t = 60 min) [mol AO/mol DPPH^●] | partition constant PW^O [2] | %AOO, percentage present in the oil phase [2] [%] | %AOW, percentage present in the aqueous phase [2] [%] | partition constant PW^I (aqueous-interfacial) [3] | 10^2 kI, interfacial rate constant for the reaction between 16ArN2^+ and AO [3] [M^−1 s^−1] | order of the percentages of AOs in the interfacial region (%AOI) [4] | antioxidant efficiency order (time needed to reach 0.5% conjugated dienes) [5] | partition constant PO^I (oil-interfacial) [3] | effective interfacial concentration relative to the stoichiometric concentration ([4]; lowest surfactant fraction ΦI = 0.005, constant o/w ratio) | decrease in efficiency on an increase in ΦI of ∼8 times ([5]; increase in ΦI of ∼8 times) [times] | increase in the oxidative stability of nanoemulsion compared with the control ([5]; ΦI = 0.005) [times]
1 | OCCc1ccc(O)c(O)c1 [HT, Hydroxytyrosol] | 0.323 ± 0.005 | 0.287 ± 0.004 | 0.279 ± 0.004 | 0.258 ± 0.004 | 0.3 ± 0.1 | 3.01 | 96.99 | 71 ± 12 | 14.2 ± 0.1 | %HTI < %C3I < %C16I < %C12I < %C10I < %C8I | C8 > C10 > C16 > C3 > HT >> control | – | – | – | –
2 | O=COCCc1ccc(O)c(O)c1 [C1] | 0.338 ± 0.005 | 0.296 ± 0.003 | 0.288 ± 0.003 | 0.277 ± 0.003 | – | – | – | – | – | – | – | – | – | – | –
3 | CCCCCCCCCCCCCCCC(=O)OCCc1ccc(O)c(O)c1 [C16] | 0.331 ± 0.011 | 0.305 ± 0.006 | 0.302 ± 0.011 | 0.298 ± 0.007 | – | – | – | – | 25.0 ± 0.8 | %HTI < %C3I < %C16I < %C12I < %C10I < %C8I | C8 > C10 > C16 > C3 > HT >> control | 13 ± 2 | – | – | –
4 | CCC(=O)OCCc1ccc(O)c(O)c1 [C3] | 0.345 ± 0.004 | 0.299 ± 0.002 | 0.289 ± 0.005 | 0.280 ± 0.003 | 7.8 ± 0.4 | 46.37 | 53.63 | 229 ± 40 | 27.7 ± 4.7 | %HTI < %C3I < %C16I < %C12I < %C10I < %C8I | C8 > C10 > C16 > C3 > HT >> control | 28 ± 3 | – | – | –
5 | CCCCCCCCCCCC(=O)OCCc1ccc(O)c(O)c1 [C12] | 0.345 ± 0.005 | 0.319 ± 0.004 | 0.309 ± 0.011 | 0.294 ± 0.006 | – | – | – | – | 25.3 ± 0.7 | %HTI < %C3I < %C16I < %C12I < %C10I < %C8I | – | 16 ± 2 | – | – | –
6 | CCCCCCCC(=O)OCCc1ccc(O)c(O)c1 [C8] | 0.295 ± 0.005 | 0.265 ± 0.005 | 0.256 ± 0.007 | 0.239 ± 0.003 | – | – | – | – | 21.0 ± 0.3 | %HTI < %C3I < %C16I < %C12I < %C10I < %C8I | C8 > C10 > C16 > C3 > HT >> control | 22 ± 2 | about 100 times | ~1.5 | ~10
